{"source": "patent US8828950B2", "about": "“Caspase inhibitors in the treatment of infection-associated preterm delivery” (Cedars-Sinai Medical Center, priority 2007, dated 2014)", "key": {"[1]": {"test_system": "pregnant mice injected with LPS", "assay": "LPS-induced pup mortality/abortion in pregnant Cox2/luciferase mice (bioluminescence imaging)", "assay_type": "in vivo, mouse", "conditions": "for pup (fetal) mortality / abortion after LPS: 0.25 mg ip 5-30 minutes prior to each ip LPS injection, 14 day pregnant mouse", "description": "Therefore, the use of caspase inhibitors confers a protective effect not seen by merely controlling infection through the use of antibiotics. As one of skill in the art will realize that the murine model can provide a guide to expected outcomes in human pregnancy, it is believed that caspase inhibitor treatment will be effective in the treatment of pregnant women with intrauterine infection so as to prevent preterm delivery and improve pregnancy outcome. This is a novel mammalian model for the improvement of pregnancy outcome.\nOur experimental test method is based on the use of a mouse model in which inflammation (as assessed by Cox2 promoter activation) is detected optically by using a transgenic animal in which activation of the promoter results in synthesis of luciferase. When luciferin is subsequently injected, the presence of luciferase is detected by a sensitive camera as the production of light. The detected inflammation is indicative of the infection caused by the LPS injection.\nIn FIG. 1, pregnant mice are imaged. The mice were first mated with Cox2/luciferase males so that the pups would be positive for the Cox2/luciferase construct. The mice were treated with LPS which is normally produced by bacteria and results in inflammation. We injected pregnant mice with 0.1 microgram/ml LPS intraperitoneally (ip) for the control mice 0-24 hours (using a 2, 4, 6, 12 hour time course) prior to the imaging. The resulting inflammation causes the upregulation of Cox2 promoter in the pups resulting in the synthesis of luciferase. […] The treatment mice were given 0.25 mg ip of the pancaspase inhibitor 5-30 minutes prior to each LPS injection.\nIn the case of the control mouse (right-hand side of FIG. 1) inflammation results in the abortion of the pups (no bioluminescence detected). […] Thus, in the case of inflammation resulting from infection (as is common in cases of preterm delivery in humans) effective treatment includes antibiotic to reduce or eliminate the infection and caspase inhibitor to prevent preterm delivery."}, "[2]": {"test_system": "primary human trophoblasts and fibroblasts", "conditions": "in vitro pretreatment; Equils et al., 2006; cited from earlier work"}, "[3]": {"test_system": "pregnant CD1 mice injected with HK-GBS", "assay": "HK-GBS-induced preterm delivery in day 14.5 pregnant CD1 mice", "assay_type": "in vivo, mouse", "protocol": "To assess whether caspase inhibition prevented HK-GBS-induced preterm delivery, unanesthetized day 14.5 pregnant CD1 mice (Harlan Laboratories, Madison, Wis.), which breed more effectively than inbred C57BL/6J mice, were pre-treated intraperitoneally with PBS, DMSO or the pancaspase inhibitor Z-VAD-FMK (10 mg/kg) 30 minutes prior to intraperitoneal injection with either 10^9 HK-GBS bacteria or medium. There were no differences in delivery outcomes following intraperitoneal injection with GBS whether or not animals were pretreated with either PBS or DMSO (diluents for the caspase inhibitor). Therefore these separate control pre-treatments are combined for the analyses.\nChi-square analysis was done to assess the effect of Z-VAD-FMK pretreatment on HK-GBS-induced preterm delivery.\nBased upon that observation, we hypothesized that the generalized inhibition of caspases would prevent microbial antigen-induced preterm delivery in the mouse pregnancy model. In order to test this hypothesis we pre-treated day 14.5 pregnant CD1 mice either with Z-VAD-FMK (10 mg/kg dissolved in DMSO/PBS) or with medium intraperitoneally 30 minutes prior to intraperitoneal HK-GBS injection."}}, "note": "“Also recorded” adds a separate entry of the source. Residues, ends and D or L forms follow the SMILES beside them. *: point of attachment. Cbz = O=C(OCc1ccccc1)*; CH2F = FC*", "data": [{"smiles": "COC(=O)C[C@H](NC(=O)[C@H](C)NC(=O)[C@@H](NC(=O)OCc1ccccc1)C(C)C)C(=O)CF", "note": "[Z-VAD-FMK, carbobenzoxy-valyl-alanyl-aspartyl-[O-methyl]-fluoromethylketone] (Cbz-Val-Ala-Asp(OMe)-CH2F)", "values": [{"measurement": "pup (fetal) mortality / abortion after LPS", "setting": "[1]", "value": "prevents pup mortality; also recorded: the pups do not abort"}, {"measurement": "pup (fetal) mortality / abortion after LPS", "setting": "[1]; listed as Z-VAD FMK", "value": "reduces fetal mortality"}, {"measurement": "pup (fetal) mortality / abortion after LPS", "setting": "[1]; listed as pancaspase inhibitor", "value": "maintenance of pregnancy"}, {"measurement": "inflammation as assessed by Cox2 promoter activation (bioluminescence)", "setting": "[1]; 0.25 mg ip prior to ip LPS injection", "value": "continued inflammation; also recorded: does not prevent inflammation"}, {"measurement": "cHSP60-induced apoptosis", "setting": "[2]", "value": "prevented Chlamydia heat shock protein (cHSP60)-induced apoptosis"}, {"measurement": "Delivery <18 hr (%)", "setting": "[3]; 10 mg/kg ip 30 minutes prior to ip 10^9 HK-GBS, 1 of n = 6, GBS alone 12 (86%) of n = 14, p value 0.0072", "value": "1 (17%)"}, {"measurement": "Delivery 18-24 hrs (%)", "setting": "[3]; 10 mg/kg ip 30 minutes prior to ip 10^9 HK-GBS, 2 of n = 6, GBS alone 0 of n = 14, p value 0.079", "value": "2 (33%)"}, {"measurement": "Preterm Delivery (<24 hours)", "setting": "[3]; 10 mg/kg ip 30 minutes prior to ip 10^9 HK-GBS, 3 of n = 6, GBS alone 12 (86%) of n = 14, p value 0.13", "value": "3 (50%)"}, {"measurement": "effect on HK-GBS-induced preterm delivery", "setting": "[3]; ip pre-treatment 10 mg/kg, ip HK-GBS", "value": "delayed i.p. HK-GBS-induced preterm delivery; also recorded: significantly delayed preterm delivery at 18 hours"}]}]}
